One assay concerns the target T1, hTAAR1 (Homo sapiens, UniProt Q96RJ0).
T1 construct: expressed in transfected cells; host or cells: Expi293F
T1 sequence (Q96RJ0 1-339): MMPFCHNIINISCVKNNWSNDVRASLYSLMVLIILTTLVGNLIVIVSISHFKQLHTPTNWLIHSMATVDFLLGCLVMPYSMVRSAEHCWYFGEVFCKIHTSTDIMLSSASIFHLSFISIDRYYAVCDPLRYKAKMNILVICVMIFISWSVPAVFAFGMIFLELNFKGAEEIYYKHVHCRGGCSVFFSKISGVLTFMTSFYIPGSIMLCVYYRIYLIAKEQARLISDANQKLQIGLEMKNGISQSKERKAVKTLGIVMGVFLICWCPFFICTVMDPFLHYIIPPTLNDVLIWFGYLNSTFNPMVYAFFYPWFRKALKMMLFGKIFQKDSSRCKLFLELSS
Nature of the assay: G protein (mini-Gs) recruitment luminescence complementation assay, agonist mode. The class given is cell-based. The settings on record: for EC50: TAAR1, G protein recruitment assay, read-out: pEC50 (converted). As to the method: The 62 predicted ligands were purchased from commercial vendors and tested for activity at a concentration of 20 μM in a luminescence complementation–based assay measuring recruitment of mini-Gs to the human TAAR1 ([38]).
To monitor TAAR1 activation by compounds, we used our previously described system. […] Cells were then reseeded in solid white, 96-well plates (Corning) with 90 μl of cell suspension per well. Luminescence was read using a plate reader for 5 min (SPARK 10 M, Tecan) before the addition of compounds to ensure signal stability. Ten microliters of each compound diluted in DPBS was added, and luminescence from each well was read for 10 min, with 100-ms read time per well. The A2AR counter-screen was performed using the same protocol. In these experiments, the hTAAR1 was replaced by a C-terminally SmBiT-tagged hA2AR construct.

Assay [1] concerns TAAR1-WT and TAAR1-KO mice. Put plainly: Core-body temperature (CBT) measurement. In kind it is in vivo. The settings on record: TAAR1-KO mice, 1 mg/kg (fig. S13A). As to the method:
Core temperature was determined by a rectal thermoprobe. Compounds or vehicle was administered intraperitoneally. A basal measurement was performed immediately before injection. Measurements were repeated every 30 min for 2 hours. Mean changes in CBT were calculated by subtracting the value from vehicle treated group at the corresponding time point. A washout of 1 week between different doses of compound 65 was applied, and mice were injected starting with the lowest dose first.

Where [2] appears, read: Tables S3A/S3B, compounds tested at 20 μM, relative to the maximal effect of β-PEA (20 µM).
Where [3] appears, read: relative to the effect of the reference agonist β-PEA, read-out: Emax.

pEC50: −log10 of the molar value. Where “and” joins values, the source holds several entries; their conditions need not be identical. Equal entries are not always repeated. Where two headings read alike, the source gives them in different places.

On hTAAR1 (setting [2]), `Cc1cccc(C2CCCN2)c1` (stereo not drawn) [Compound 2] registered a maximum response (Emax) of 1.3%. As to `Cc1nc(C(N)C(C)O)cs1.Cl.Cl` (stereo not drawn) [Compound 3], the Emax on hTAAR1 (setting [2]) amounted to 2.3%. `Cl.Cl.c1cnc2c(c1)CNC2` [Compound 4] registered a maximal effect (Emax) on hTAAR1 (setting [2]) of 4.4%. The compound `Cc1c(C(C)N)sc2ccccc12.Cl` (stereo not drawn) [Compound 5] registered an Emax at hTAAR1 (setting [2]) of 8.5%. The compound `CNC(C)c1nc2ccccc2s1` (stereo not drawn) [Compound 6] registered an Emax on hTAAR1 (setting [2]) of 8.8%. On hTAAR1 (setting [2]), `CC(N)c1cc2ccccc2s1` (stereo not drawn) [Compound 7] displayed a maximal response (Emax) of 14.7%. Turning to `CCCN(CCC)C1CCc2cccc(O)c2C1` (stereo not drawn) [Compound 8-OH-DPAT, 8-hydroxy-2-(di-n-propylamino)tetralin, reference compound], the CBT responsiveness entry in assay [1] is on record as “validated the responsiveness of TAAR1-KO mice”. For the compound `Br.NCc1cccc2c(O)cccc12` [Compound 8], the maximal effect (Emax) on hTAAR1 (setting [2]) was found to be 14.9%. With `NC1CSc2ccc(Br)cc21` (stereo not drawn) [Compound 9], on hTAAR1 (setting [2]), the maximal response (Emax) came to 19.1%. `CNCc1cc2sccc2n1C` [Compound 11] displayed an Emax on hTAAR1 (setting [2]) of 40.4%. Turning to `NCc1noc2ccc(F)cc12` [Compound 13], the EC50 at hTAAR1 was 3.16 µM. In addition, at hTAAR1 (setting [3]), the Emax came out at 51.8%. For the compound `C[C@H](N)c1coc2ccccc12` [Compound 14], the EC50 on hTAAR1 is 7.94 µM. Besides, on hTAAR1 (setting [3]), the maximum response (Emax) was 54.3%. As for `C[C@H](N)c1csc2ccccc12` [Compound 15], the EC50 on hTAAR1 is 6.31 µM. At hTAAR1 (setting [3]), the Emax worked out at 57.5%. The like results for `C[C@@H](N)c1cc2ccccc2o1` [Compound 16] were, in that order, 1.58 µM and 61.9%. With `NC[C@H]1Cc2cc(Br)ccc2O1` [Compound 17], the EC50 at hTAAR1 was 6.31 µM. In addition, the maximum response (Emax) at hTAAR1 (setting [3]) worked out at 67.8%. Turning to `Cc1ccc(-c2cccc3c2CNCC3)o1` [Compound 18], the EC50 at hTAAR1 is 0.631 µM. Besides, the Emax at hTAAR1 (setting [3]) turned out to be 68.7%. `CN[C@H]1CCc2ccccc2C1` [Compound 19]: the EC50 at hTAAR1 is 3.98 µM. On hTAAR1 (setting [2]), this compound displayed an Emax at 20 µM of 72.8%. In addition, the Emax on hTAAR1 (setting [3]) amounted to 74.5%. For the compound `N[C@H]1COc2cccc(Br)c2C1` [Compound 20], the EC50 at hTAAR1 is 3.98 µM. The maximal effect (Emax) at hTAAR1 (setting [3]) is 74.5%.

As for `Cc1cc2c(CCN)csc2s1` [Compound 21], the EC50 at hTAAR1 was 3.16 µM. The maximal effect (Emax) at 20 µM on hTAAR1 (setting [2]) turned out to be 75.3%. Moreover, on hTAAR1 (setting [3]), the Emax amounted to 75.2%. With `CNCc1cccc2cccnc12` [Compound 22], the EC50 at hTAAR1 was 3.16 µM. Moreover, the Emax on hTAAR1 (setting [3]) was found to be 78.5%. With `NCc1nsc2ccccc12` [Compound 23], the EC50 on hTAAR1 was 3.98 µM. Moreover, on hTAAR1 (setting [3]), the maximal response (Emax) was 79.2%. For the compound `COc1cccc(C2=CCNC2)c1` [Compound 24], the EC50 on hTAAR1 was 1.58 µM. The compound further registered a maximal effect (Emax) at 20 µM at hTAAR1 (setting [2]) of 81.8%. Further, the Emax on hTAAR1 (setting [3]) worked out at 81.4%. Turning to `c1csc([C@H]2CCCNC2)n1` [Compound 25], the EC50 on hTAAR1 is 1 µM. Besides, the maximal response (Emax) on hTAAR1 (setting [3]) amounted to 95.3%. With `NC[C@H]1OCCc2sc(F)cc21` [Compound 26], the EC50 on hTAAR1 is 1 µM. The Emax at hTAAR1 (setting [3]) stood at 95.5%. In the case of `Cc1ccc([C@@H]2CNCCO2)o1` [Compound 27], the EC50 at hTAAR1 was 0.251 µM. The maximal effect (Emax) at hTAAR1 (setting [3]) worked out at 98.7%. For `Cc1ccc2c(c1Br)CNC2` [Compound 28] the same measures were 0.398 µM and 103%. As to `Brc1csc2c1CNCC2` [Compound 29], at hTAAR1, the EC50 is 0.158 µM. Besides, the Emax on hTAAR1 (setting [3]) was found to be 106%.

At hTAAR1 (setting [2]), `CN1CCC(c2ccc(Br)cc2)C1` (stereo not drawn) [Compound 33] yielded a maximal effect (Emax) of 0.6%. `C[C@@H](NCC1CC1)c1coc2ccccc12` [Compound 35]: the Emax at hTAAR1 (setting [2]) is listed as 0.9%.

`CC(CNCc1ncc[nH]1)c1ccncc1` (stereo not drawn) [Compound 36]: the maximal response (Emax) at hTAAR1 (setting [2]) amounted to 1.3%. Take `CC(NCCO)c1cccc2c1OCO2` (stereo not drawn) [Compound 38]: the Emax at hTAAR1 (setting [2]) turned out to be 3.5%.

For the compound `CCNCc1nc(-c2cccs2)cs1` [Compound 39], at hTAAR1 (setting [2]), the Emax came to 3.9%.

On hTAAR1 (setting [2]), `CCN1CCc2ccccc2C(C)C1` (stereo not drawn) [Compound 43] displayed a maximum response (Emax) of 7.6%. Compound `OC(CNC[C@@H]1Cc2ccccc2CO1)C1CC1` (stereo partly drawn) [Compound 44] yielded an Emax at hTAAR1 (setting [2]) of 10.0%. For the compound `CN[C@@H](C)CNc1ncnc2sc(C)cc12` [Compound 46], the maximum response (Emax) on hTAAR1 (setting [2]) came to 18.8%.

In turn, `c1ccc2c(c1)COC2CNCc1ccn[nH]1` (stereo not drawn) [Compound 47] returned an Emax at hTAAR1 (setting [2]) of 21.0%. The compound `CN1CCC(c2c[nH]c3ccccc23)C1` (stereo not drawn) [Compound 49] came in with an Emax at hTAAR1 (setting [2]) of 27.1%. Same read-out and setting: the value for `CCN1CCCC(c2ccccc2)C1` (stereo not drawn) [Compound 52] was 44.5%. Consider `c1ccc2cc(CNC3CC3)ccc2c1` [Compound 56], for which, at hTAAR1, the EC50 is 12.6 µM. Besides, at hTAAR1 (setting [3]), the Emax came to 63%.

Turning to `CCNCc1cccc2c1OCO2` [Compound 57], at hTAAR1, the EC50 is 5.01 µM. In addition, the maximal response (Emax) on hTAAR1 (setting [3]) was 73.2%. Take `CC[C@@H](CNCC1=CCCOC1)c1ccccc1` [Compound 58]: at hTAAR1, the EC50 was 7.94 µM. Also, on hTAAR1 (relative to the effect of the reference agonist β-PEA), the Emax amounted to 78.4%. Regarding `CCNCc1cncc2ccccc12` [Compound 59], on hTAAR1, the EC50 was 6.31 µM. For the same compound, the maximal effect (Emax) at hTAAR1 (setting [3]) stood at 78.8%. Regarding `CCNCc1cccc2ccoc12` [Compound 60], at hTAAR1, the EC50 was 3.16 µM. For the same compound, on hTAAR1 (setting [3]), the maximal response (Emax) was determined as 79.9%. For the compound `c1ccc2c(c1)C[C@H]2CNCc1c[nH]cn1` [Compound 61], the EC50 on hTAAR1 was 5.01 µM. Moreover, on hTAAR1 (setting [3]), the Emax is 80.3%. In the case of `Brc1cccc2c1CNCC2` [Compound 62], the EC50 on hTAAR1 is 0.316 µM. For the same compound, the Emax at hTAAR1 (setting [3]) worked out at 107%. `c1coc(C2CNCCO2)c1` (stereo not drawn) [Compound 64]: at hTAAR1, the EC50 is 0.398 µM. In addition, the “fold reduction of agonist potency versus compound 30” value at hTAAR1 (TAAR1 G protein recruitment) is above 10 fold. In the case of `Cn1cc(C2=CCCNC2)cn1` [Compound 66], on hTAAR1, the EC50 was 2 µM. `C1=C(c2ccccc2)CNCC1` [Compound 67]: on hTAAR1 (pEC50, TAAR1, G protein recruitment assay), the negative-log EC50 (pEC50) is 7.60. `COc1cccnc1C1=C(C)CCNC1` [Compound 69]: at hTAAR1, the EC50 is 3.16 µM. Regarding `CC1=C(c2cc[nH]n2)CNCC1` [Compound 71], the EC50 at hTAAR1 is 1.58 µM and 0.631 µM. Same read-out and setting: the value for `CC1=C(c2ncco2)CNCC1` [Compound 74] was 0.631 µM. As for `CC1=C(c2ccccn2)CNCC1` [Compound 75], the EC50 on hTAAR1 was 0.501 µM. For the compound `CC1=C(c2cccnn2)CNCC1` [Compound 76], the EC50 at hTAAR1 is 50.1 µM and ~50.1 µM. On to `CC1=C(c2ccncc2)CNCC1` [Compound 77], for which, at hTAAR1, the EC50 was 7.94 µM. For the compound `NCCc1ccccc1` [β-PEA, β-phenethylamine, reference compound], on hTAAR1, the maximal effect (Emax) is 100% and the EC50 was 0.251 µM.

The Emax is the size of the effect at its maximum, as opposed to the concentration needed. A word on the pEC50: it is −log10 of the EC50, conventionally taken in molar units. The low end stands for a high EC50, the high end for a low EC50.

(Values after article PMC11305387, “AlphaFold accelerated discovery of psychotropic agonists targeting the trace amine–associated receptor 1” (Science Advances, 2024).)
